*1 amine or outer side, *2 acyl side, *3 side chain or, on linkers, in order; H or OH if unused. Where a SMILES comes first, the peptide text is derived from it. Side-chain parts run from the residue outwards. [ ]: non-standard residue; d: D form. The star is where a group is joined. PEG12 = NCCOCCOCCOCCOCCOCCOCCOCCOCCOCCOCCOCCOCCC(=O)O; γGlu = O=C(O)[C@H](CCC(=O)[*:2])N[*:1]; Stearoyl = CCCCCCCCCCCCCCCCCC(=O)*; Palmitoyl = CCCCCCCCCCCCCCCC(=O)*; αMeK = C[C@](N)(CCCCN)C(=O)O; Nle = CCCC[C@H](N)C(=O)O; AEEA = NCCOCCOCC(=O)O; Aib = CC(C)(N)C(=O)O
Experiment: Pharmacokinetic (PK) determination after i.v. or s.c. administration to rats
Assay type: in vivo, Sprague Dawley rats
Details: Rat PK; for C0 / half-life: iv; for C0 / half-life / T½: 1 mg/kg i.v.; for C0: extrapolated plasma concentration at t=0, read-out: C0; for half-life: read-out: T½ (converted); for Cmax / Tmax: 3 mg/kg s.c.; for bioavailability: subcutaneous
Summary of the method: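 Sprague Dawley rats received peptide in PBS at 1 mg/kg i.v. or 3 mg/kg s.c., dose corrected for salts, solvent and purity. Plasma analysed by LC/MS after protein precipitation; non-compartmental PK, BLQ values set to zero, F% as dose-corrected s.c./i.v. AUC ratio.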

[1] = Sprague Dawley, plasma, 3 mg/kg s.c. vs 1 mg/kg i.v., dose-corrected AUC ratio

C0 (Sprague Dawley)	half-life (Sprague Dawley, plasma)	Cmax (Sprague Dawley, plasma, sc)	Tmax (Sprague Dawley, plasma, sc)	bioavailability [1]	T½	Cmax	F % (3 mg/kg s.c. vs 1 mg/kg i.v., dose-corrected AUC ratio)	SMILES
3600 nM	5.7 h	2100 nM	8 h	76%	–	–	–	CCCCCCCCCCCCCCCC(=O)N[C@@H](CCC(=O)N[C@@H](CCC(=O)N[C@@H](CCC(=O)N[C@@H](CCC(=O)NCCCC[C@H](NC(=O)COCCOCCNC(=O)COCCOCCNC(=O)COCCOCCNC(=O)COCCOCCNC(=O)[C@H](CCCCNC(C)=O)NC(=O)[C@H](C)NC(=O)[C@H](CCCNC(=N)N)NC(=O)[C@](C)(CCCCN)NC(=O)[C@H](CO)NC(=O)[C@H](Cc1ccccc1)NC(=O)[C@@H](NC(=O)[C@H](CO)NC(=O)[C@H](CCCC)NC(=O)CNC(=O)[C@H](CCC(=O)O)NC(=O)C(C)(C)NC(=O)C(C)(C)NC(=O)[C@@H](NC(=O)[C@H](CCCCNC(C)=O)NC(=O)[C@H](C)NC(=O)[C@H](CCCNC(=N)N)NC(=O)[C@@H](NC(=O)[C@H](CCCCN)NC(=O)[C@H](CCC(=O)O)NC(=O)[C@H](CCCNC(=N)N)NC(=O)CNC(=O)[C@H](CCC(=O)O)NC(=O)[C@H](CC(C)C)NC(C)=O)C(C)C)[C@@H](C)CC)[C@@H](C)O)C(N)=O)C(=O)O)C(=O)O)C(=O)O)C(=O)O [compound 150] (Ac-LEGREKVRAK(Ac)I[Aib][Aib]EG[Nle]STFS[αMeK]RAK(Ac)[AEEA][AEEA][AEEA][AEEA]K([γGlu-γGlu-γGlu-γGlu-Palmitoyl])-NH2)
4020 nM	7.9 h	1340 nM	6 h	55%	–	–	–	CCCCCCCCCCCCCCCC(=O)N[C@@H](CCC(=O)N[C@@H](CCC(=O)N[C@@H](CCC(=O)NCCOCCOCC(=O)NCCOCCOCC(=O)NCCCC[C@H](NC(=O)[C@H](CCCCN)NC(=O)[C@H](CCCNC(=N)N)NC(=O)C(C)(C)NC(=O)[C@H](CO)NC(=O)[C@H](Cc1c[nH]c2ccccc12)NC(=O)[C@@H](NC(=O)[C@H](CO)NC(=O)[C@H](CCCC)NC(=O)CNC(=O)[C@H](CCC(=O)O)NC(=O)C(C)(C)NC(=O)C(C)(C)NC(=O)[C@@H](NC(=O)[C@H](CCC(N)=O)NC(=O)[C@H](C)NC(=O)[C@H](CCCNC(=N)N)NC(=O)[C@@H](NC(=O)[C@H](CCCCN)NC(=O)[C@H](CCC(=O)O)NC(=O)[C@H](CCCNC(=N)N)NC(=O)CNC(=O)[C@H](CCC(=O)O)NC(=O)[C@H](CC(C)C)NC(C)=O)C(C)C)[C@@H](C)CC)[C@@H](C)O)C(N)=O)C(=O)O)C(=O)O)C(=O)O [compound 58] (Ac-LEGREKVRAQI[Aib][Aib]EG[Nle]STWS[Aib]RKK([AEEA-AEEA-γGlu-γGlu-γGlu-Palmitoyl])-NH2)
7760 nM	10 h	780 nM	4 h	87%	–	–	–	CCCCCCCCCCCCCCCC(=O)N[C@@H](CCC(=O)N[C@@H](CCC(=O)N[C@@H](CCC(=O)N[C@@H](CCC(=O)NCCCC[C@H](NC(=O)COCCOCCNC(=O)COCCOCCNC(=O)COCCOCCNC(=O)COCCOCCNC(=O)[C@H](CCCCNC(C)=O)NC(=O)[C@H](C)NC(=O)[C@H](CCCNC(=N)N)NC(=O)[C@](C)(CCCCN)NC(=O)[C@H](CO)NC(=O)[C@H](Cc1ccccc1)NC(=O)[C@@H](NC(=O)[C@H](CO)NC(=O)[C@H](CCC(N)=O)NC(=O)CNC(=O)[C@H](CCC(=O)O)NC(=O)C(C)(C)NC(=O)C(C)(C)NC(=O)[C@@H](NC(=O)[C@H](CCCCNC(C)=O)NC(=O)[C@H](C)NC(=O)[C@H](CCCNC(=N)N)NC(=O)[C@@H](NC(=O)[C@H](CCCCN)NC(=O)[C@H](CCC(=O)O)NC(=O)[C@H](CCCNC(=N)N)NC(=O)CNC(=O)[C@H](CCC(=O)O)NC(=O)[C@H](CC(C)C)NC(C)=O)C(C)C)[C@@H](C)CC)[C@@H](C)O)C(N)=O)C(=O)O)C(=O)O)C(=O)O)C(=O)O [compound 170] (Ac-LEGREKVRAK(Ac)I[Aib][Aib]EGQSTFS[αMeK]RAK(Ac)[AEEA][AEEA][AEEA][AEEA]K([γGlu-γGlu-γGlu-γGlu-Palmitoyl])-NH2)
2600 nM	–	–	8 h	–	3.90 h	1500 nM	74%	CCCCCCCCCCCCCCCCCC(=O)N[C@@H](CCC(=O)N[C@@H](CCC(=O)N[C@@H](CCC(=O)NCCOCCOCC(=O)NCCOCCOCC(=O)NCCOCCOCC(=O)NCCCC[C@H](NC(=O)[C@H](CCCCNC(C)=O)NC(=O)[C@H](CCCCN)NC(=O)[C@H](CCCNC(=N)N)NC(=O)C(C)(C)NC(=O)[C@H](CO)NC(=O)[C@H](Cc1c[nH]c2ccccc12)NC(=O)[C@@H](NC(=O)[C@H](CO)NC(=O)[C@H](CCCC)NC(=O)CNC(=O)[C@H](CCC(=O)O)NC(=O)C(C)(C)NC(=O)C(C)(C)NC(=O)[C@@H](NC(=O)[C@H](CCCCNC(C)=O)NC(=O)[C@H](C)NC(=O)[C@H](CCCNC(=N)N)NC(=O)[C@@H](NC(=O)[C@H](CCCCN)NC(=O)[C@H](CCC(=O)O)NC(=O)[C@H](CCCNC(=N)N)NC(=O)CNC(=O)[C@H](CCC(=O)O)NC(=O)[C@H](CC(C)C)NC(C)=O)C(C)C)[C@@H](C)CC)[C@@H](C)O)C(N)=O)C(=O)O)C(=O)O)C(=O)O [compound 81] (Ac-LEGREKVRAK(Ac)I[Aib][Aib]EG[Nle]STWS[Aib]RKK(Ac)K([AEEA-AEEA-AEEA-γGlu-γGlu-γGlu-Stearoyl])-NH2)
4200 nM	–	2500 nM	8 h	60%	4.30 h	–	–	CCCCCCCCCCCCCCCCCC(=O)N[C@@H](CCC(=O)N[C@@H](CCC(=O)N[C@@H](CCC(=O)NCCCC[C@H](NC(=O)CCOCCOCCOCCOCCOCCOCCOCCOCCOCCOCCOCCOCCNC(=O)[C@H](CCCCNC(C)=O)NC(=O)[C@H](CCCCN)NC(=O)[C@H](CCCNC(=N)N)NC(=O)C(C)(C)NC(=O)[C@H](CO)NC(=O)[C@H](Cc1c[nH]c2ccccc12)NC(=O)[C@@H](NC(=O)[C@H](CO)NC(=O)[C@H](CCCC)NC(=O)CNC(=O)[C@H](CCC(=O)O)NC(=O)C(C)(C)NC(=O)C(C)(C)NC(=O)[C@@H](NC(=O)[C@H](CCCCNC(C)=O)NC(=O)[C@H](C)NC(=O)[C@H](CCCNC(=N)N)NC(=O)[C@@H](NC(=O)[C@H](CCCCN)NC(=O)[C@H](CCC(=O)O)NC(=O)[C@H](CCCNC(=N)N)NC(=O)CNC(=O)[C@H](CCC(=O)O)NC(=O)[C@H](CC(C)C)NC(C)=O)C(C)C)[C@@H](C)CC)[C@@H](C)O)C(N)=O)C(=O)O)C(=O)O)C(=O)O [compound 33] (Ac-LEGREKVRAK(Ac)I[Aib][Aib]EG[Nle]STWS[Aib]RKK(Ac)[PEG12]K([γGlu-γGlu-γGlu-Stearoyl])-NH2)
